Data taken from patent US20050112573A1, “Method of detecting toxic substance” (priority 2001, published 2005).

System: yeast genes (level of expressed mRNA)
Test: DNA chip analysis of expressed mRNA of yeast genes after 2 h culture with a toxic chemical substance
Assay type: cell-based, Saccharomyces cerevisiae S288C
Settings: for The level of expressed mRNA in the presence of chemical substance/ (ratio to absence): transport facilitation protein gene; for The level of expressed mRNA in the presence of chemical substance/: ratio to no chemical; for The level of expressed mRNA in the presence of chemical substance/ (ratio to absence of chemical substance): stress protein genes, DNA chip
How it was run: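 Values are treated-to-control fluorescence ratios from a whole-yeast-genome DNA chip (65° C, over 12 h hybridization) using Cy3/Cy5-labelled cDNA from mRNA. Log-phase S288C cells in YPD at 25° C were exposed 2 h to a toxicant at sublethal, growth-inhibiting concentration.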

sodium dodecylbenzosulfonate [(17)]
1.7: The level of expressed mRNA in the presence of chemical substance/The level of expressed mRNA in the absence of chemical substance (yeast gene YER039C) | The level of expressed mRNA in the presence of chemical substance/ (ratio to absence) (yeast gene YFL054C) | The level of expressed mRNA in the presence of chemical substance/ (yeast gene YFR042W)
1.5: The level of expressed mRNA in the presence of chemical substance/ (yeast gene YDR531W) | The level of expressed mRNA in the presence of chemical substance/ (yeast gene YEL041W) | The level of expressed mRNA in the presence of chemical substance/in the absence of chemical substance (yeast gene YFL014W) | The level of expressed mRNA in the presence of chemical substance/The level of expressed mRNA in the absence of chemical substance (yeast gene YFL043C) | The level of expressed mRNA in the presence of chemical substance/in the absence of chemical substance (yeast gene YFR047C) | The level of expressed mRNA in the presence of chemical substance/ (yeast gene YGL046W) | The level of expressed mRNA in the presence of chemical substance/ (yeast gene YGR053C)
1.3: The level of expressed mRNA in the presence of chemical substance/ (yeast gene YDR512C) | The level of expressed mRNA in the presence of chemical substance/ (ratio to absence) (yeast gene YGL104C) | The level of expressed mRNA in the presence of chemical substance/ (yeast gene YGR042W)
1.2: The level of expressed mRNA in the presence of chemical substance/The level of expressed mRNA in the absence of chemical substance (yeast gene YDR315C) | The level of expressed mRNA in the presence of chemical substance/ (ratio to absence), gene YDR377W (yeast gene YDR377W, mitochondria-located protein genes, 2 h culture with chemical) | The level of expressed mRNA in the presence of chemical substance/ (in its absence), gene YDR387C (yeast gene YDR387C, ratio of DNA chip fluorescence intensity to that without chemical substance) | The level of expressed mRNA in the presence of chemical substance/The level of expressed mRNA in the absence of chemical substance (yeast gene YDR388W) | The level of expressed mRNA in the presence of chemical substance/The level of expressed mRNA in the absence of chemical substance (yeast gene YDR481C) | The level of expressed mRNA in the presence of chemical substance/in the absence of chemical substance (yeast gene YER053C) | The level of expressed mRNA in the presence of chemical substance/ (ratio to absence) (yeast gene YER053C) | The level of expressed mRNA in the presence of chemical substance/in the absence of chemical substance (yeast gene YER091C) | The level of expressed mRNA in the presence of chemical substance/The level of expressed mRNA in the absence of chemical substance (yeast gene YFL028C) | The level of expressed mRNA in the presence of chemical substance/in the absence of chemical substance (yeast gene YFL031W) | The level of expressed mRNA in the presence of chemical substance/in the absence of chemical substance (yeast gene YFL061W) | The level of expressed mRNA in the presence of chemical substance/ (yeast gene YFR046C) | The level of expressed mRNA in the presence of chemical substance/ (yeast gene YGL250W)
1.4: The level of expressed mRNA in the presence of chemical substance/ (yeast gene YDR350C) | The level of expressed mRNA in the presence of chemical substance/ (ratio to absence) (yeast gene YFL055W) | The level of expressed mRNA in the presence of chemical substance/in the absence of chemical substance (yeast gene YFR053C) | The level of expressed mRNA in the presence of chemical substance/in the absence of chemical substance (yeast gene YGL156W) | The level of expressed mRNA in the presence of chemical substance/ (ratio to absence) (yeast gene YGL167C)
1.6: The level of expressed mRNA in the presence of chemical substance/in the absence of chemical substance (yeast gene YDR497C) | The level of expressed mRNA in the presence of chemical substance/ (ratio to absence) (yeast gene YDR497C) | The level of expressed mRNA in the presence of chemical substance/ (in its absence), gene YER015W (yeast gene YER015W, ratio of DNA chip fluorescence intensity to that without chemical substance) | The level of expressed mRNA in the presence of chemical substance/in the absence of chemical substance (yeast gene YFL057C) | The level of expressed mRNA in the presence of chemical substance/in the absence of chemical substance (yeast gene YGR043C)
0.7: The level of expressed mRNA in the presence of chemical substance/The level of expressed mRNA in the absence of chemical substance (yeast gene YDR432W) | The level of expressed mRNA in the presence of chemical substance/ (ratio to absence of chemical substance) (yeast gene YEL039C) | The level of expressed mRNA in the presence of chemical substance/The level of expressed mRNA in the absence of chemical substance (yeast gene YEL042W) | The level of expressed mRNA in the presence of chemical substance/ (ratio to absence) (yeast gene YEL065W) | The level of expressed mRNA in the presence of chemical substance/ (yeast gene YER181C) | The level of expressed mRNA in the presence of chemical substance/ (ratio to absence) (yeast gene YGR055W) | The level of expressed mRNA in the presence of chemical substance/ (ratio to absence) (yeast gene YGR065C)
1.9: The level of expressed mRNA in the presence of chemical substance/The level of expressed mRNA in the absence of chemical substance (yeast gene YDR358W)
1.8: The level of expressed mRNA in the presence of chemical substance/in the absence of chemical substance (yeast gene YGL157W)
3.2: The level of expressed mRNA in the presence of chemical substance/in the absence of chemical substance (yeast gene YGR032W)
3.9: The level of expressed mRNA in the presence of chemical substance/ (in its absence), gene YGL205W (yeast gene YGL205W, ratio of DNA chip fluorescence intensity to that without chemical substance)
0.8: The level of expressed mRNA in the presence of chemical substance/ (yeast gene YEL072W) | The level of expressed mRNA in the presence of chemical substance/ (in its absence), gene YGL115W (yeast gene YGL115W, ratio of DNA chip fluorescence intensity to that without chemical substance) | The level of expressed mRNA in the presence of chemical substance/ (ratio to absence of chemical substance) (yeast gene YGL115W) | The level of expressed mRNA in the presence of chemical substance/The level of expressed mRNA in the absence of chemical substance (yeast gene YGL158W) | The level of expressed mRNA in the presence of chemical substance/ (in its absence), gene YGR096W (yeast gene YGR096W, ratio of DNA chip fluorescence intensity to that without chemical substance)
0.6: The level of expressed mRNA in the presence of chemical substance/ (ratio to absence) (yeast gene YGL255W)
1.0: The level of expressed mRNA in the presence of chemical substance/ (ratio to absence) (yeast gene YDR342C) | The level of expressed mRNA in the presence of chemical substance/ (yeast gene YDR374C) | The level of expressed mRNA in the presence of chemical substance/ (ratio to absence) (yeast gene YEL027W) | The level of expressed mRNA in the presence of chemical substance/The level of expressed mRNA in the absence of chemical substance (yeast gene YEL066W) | The level of expressed mRNA in the presence of chemical substance/in the absence of chemical substance (yeast gene YER096W) | The level of expressed mRNA in the presence of chemical substance/ (ratio to absence) (yeast gene YER119C) | The level of expressed mRNA in the presence of chemical substance/in the absence of chemical substance (yeast gene YFL030W) | The level of expressed mRNA in the presence of chemical substance/in the absence of chemical substance (yeast gene YFL056C) | The level of expressed mRNA in the presence of chemical substance/ (yeast gene YGL146C) | The level of expressed mRNA in the presence of chemical substance/in the absence of chemical substance (yeast gene YGL184C) | The level of expressed mRNA in the presence of chemical substance/ (yeast gene YGR066C)
2.1: The level of expressed mRNA in the presence of chemical substance/ (yeast gene YGL117W)
3.0: The level of expressed mRNA in the presence of chemical substance/The level of expressed mRNA in the absence of chemical substance (yeast gene YER130C)
0.9: The level of expressed mRNA in the presence of chemical substance/ (yeast gene YER124C) | The level of expressed mRNA in the presence of chemical substance/ (yeast gene YFR017C) | The level of expressed mRNA in the presence of chemical substance/ (ratio to absence) (yeast gene YFR045W) | The level of expressed mRNA in the presence of chemical substance/ (in its absence), gene YGL035C (yeast gene YGL035C, ratio of DNA chip fluorescence intensity to that without chemical substance) | The level of expressed mRNA in the presence of chemical substance/ (yeast gene YGL067W) | The level of expressed mRNA in the presence of chemical substance/ (yeast gene YGL114W) | The level of expressed mRNA in the presence of chemical substance/ (ratio to absence), gene YGL187C (yeast gene YGL187C, mitochondria-located protein genes, 2 h culture with chemical) | The level of expressed mRNA in the presence of chemical substance/ (yeast gene YGL204C) | The level of expressed mRNA in the presence of chemical substance/ (yeast gene YGL259W) | The level of expressed mRNA in the presence of chemical substance/ (yeast gene YGR011W) | The level of expressed mRNA in the presence of chemical substance/ in its absence, gene YGR062C (yeast gene YGR062C, energy system protein genes, 2 h culture with the chemical, ratio to control without chemical) | The level of expressed mRNA in the presence of chemical substance/ (ratio to absence), gene YGR062C (yeast gene YGR062C, mitochondria-located protein genes, 2 h culture with chemical)
1.1: The level of expressed mRNA in the presence of chemical substance/in the absence of chemical substance (yeast gene YDR313C) | The level of expressed mRNA in the presence of chemical substance/ (ratio to absence) (yeast gene YDR343C) | The level of expressed mRNA in the presence of chemical substance/in the absence of chemical substance (yeast gene YDR368W) | The level of expressed mRNA in the presence of chemical substance/ (yeast gene YDR494W) | The level of expressed mRNA in the presence of chemical substance/The level of expressed mRNA in the absence of chemical substance (yeast gene YDR510W) | The level of expressed mRNA in the presence of chemical substance/in the absence of chemical substance (yeast gene YDR516C) | The level of expressed mRNA in the presence of chemical substance/ (yeast gene YER045C) | The level of expressed mRNA in the presence of chemical substance/ (ratio to absence of chemical substance) (yeast gene YER057C) | The level of expressed mRNA in the presence of chemical substance/The level of expressed mRNA in the absence of chemical substance (yeast gene YER107C) | The level of expressed mRNA in the presence of chemical substance/in the absence of chemical substance (yeast gene YER178W) | The level of expressed mRNA in the presence of chemical substance/ (ratio to absence) (yeast gene YFL041W) | The level of expressed mRNA in the presence of chemical substance/ (ratio to absence) (yeast gene YGL008C) | The level of expressed mRNA in the presence of chemical substance/in the absence of chemical substance (yeast gene YGL062W) | The level of expressed mRNA in the presence of chemical substance/ (yeast gene YGL098W) | The level of expressed mRNA in the presence of chemical substance/ (yeast gene YGL193C) | The level of expressed mRNA in the presence of chemical substance/The level of expressed mRNA in the absence of chemical substance (yeast gene YGL229C)
